In test [1] the test system is Staphylococcus aureus. Nature of the test: Antibacterial activity against Staphylococcus aureus after 24 hrs by microbroth dilution method. The class given is functional. In general terms: Broth dilution looks for growth in wells or tubes with falling amounts of substance.
The test system of test [2] is Staphylococcus aureus. Briefly: Antibacterial activity against oxacillin-sensitive Staphylococcus aureus after 24 hrs by microbroth dilution method. The format is functional.
Test [3] has as its system Staphylococcus aureus. Nature of the test: Antibacterial activity against oxacillin-resistant Staphylococcus aureus after 24 hrs by microbroth dilution method. The format is functional.
Test [4] deals with Escherichia coli. Nature of the test: Antibacterial activity against Escherichia coli after 24 hrs by microbroth dilution method. The format is functional.
The test system of test [5] is Pseudomonas aeruginosa. Nature of the test: Antibacterial activity against Pseudomonas aeruginosa after 24 hrs by microbroth dilution method. The format is functional.
For test [6], the system named is Pseudomonas aeruginosa. Nature of the test: Antibacterial activity against colistin-sensitive Pseudomonas aeruginosa after 24 hrs by microbroth dilution method. The class given is functional.
The subject of test [7] is Inquilinus limosus. Nature of the test: Antibacterial activity against colistin-resistant Inquilinus limosus after 24 hrs by microbroth dilution method. The format is functional.
Test [8] has as its system Burkholderia cepacia. Briefly: Antibacterial activity against Colistin resistant Burkholderia cepacia after 24 hrs by microbroth dilution method. The class given is functional.
Test [9] has as its system Escherichia coli. Nature of the test: Antibacterial activity against Escherichia coli ATCC 25922 after 24 hrs by microbroth dilution method in absence of Mg2+. The format is functional.
The subject of test [10] is Staphylococcus aureus. Briefly: Antibacterial activity against Staphylococcus aureus ATCC 25923 after 24 hrs by microbroth dilution method in absence of Mg2+. The class given is functional.
The subject of test [11] is Escherichia coli. Briefly: Antibacterial activity against Escherichia coli ATCC 25922 after 24 hrs by microbroth dilution method in presence of Mg2+. The format is functional.
Test [12] deals with Staphylococcus aureus. Briefly: Antibacterial activity against Staphylococcus aureus ATCC 25923 after 24 hrs by microbroth dilution method in presence of Mg2+. The class given is functional.
Test [13] relates to Escherichia coli. Briefly: Ratio of MIC for Escherichia coli ATCC 25922 in presence of Mg2+ to MIC for Escherichia coli ATCC 25922 in absence of Mg2+. The format is functional.
Test [14] relates to Staphylococcus aureus. Nature of the test: Bactericidal activity against Staphylococcus aureus DSM 799 assessed as log decrease in bacterial count at MIC after 1 hr by time-kill assay. The format is functional.
Test [15] deals with Pseudomonas aeruginosa. Nature of the test: Bactericidal activity against Pseudomonas aeruginosa DSM 939 assessed as complete killing at MIC after 2 hrs by time-kill assay. The class given is functional, organism-based.
Test [16] has as its system Staphylococcus aureus. Nature of the test: Antibacterial activity against Staphylococcus aureus assessed as induction of bacterial membrane depolarization at MIC measured up to 21 mins by fluorescence assay relative to squalamine. The class given is functional.
The subject of test [17] is Escherichia coli. Briefly: Antibacterial activity against Escherichia coli assessed as induction of ATP efflux at 4 times MIC after 5 mins by luminometry analysis. The class given is functional.
Test [18] has as its system Escherichia coli. Briefly: Antibacterial activity against Escherichia coli assessed as induction of bacterial membrane depolarization at MIC measured up to 21 mins by fluorescence assay relative to squalamine. The format is functional.
Test [19] concerns Staphylococcus aureus. Briefly: Antibacterial activity against Staphylococcus aureus assessed as induction of ATP efflux at 4 times MIC after 5 mins by luminometry. The format is functional.

Converted amounts (≈) assume the structure as drawn. The source made the active and inactive calls. No cut-off for these calls is given here.

On to `C[C@@H](N)[C@H]1CC[C@H]2[C@@H]3CCC4=C[C@@H](N)CC[C@]4(C)[C@H]3CC[C@]12C`, for which the MIC (usually the lowest concentration that inhibits growth of the organism) in test [1] is 40 mg/L (≈ 126 µM); in test [2], over 40 mg/L; in [3], 40 mg/L (≈ 126 µM); in test [4], over 40 mg/L; in test [5], over 40 mg/L; in test [6] it was over 40 mg/L. The MIC in test [7] and in test [8] was over 40 mg/L each time.

In the case of `C[C@@H](NCCCCCCCCN)[C@H]1CC[C@H]2[C@@H]3CCC4=C[C@@H](NCCCCCCCCN)CC[C@]4(C)[C@H]3CC[C@]12C`, the MIC in [1] is 2.5 mg/L (≈ 4.38 µM); in [2] it was 2.5 mg/L (≈ 4.38 µM); in test [3], 5 mg/L (≈ 8.76 µM); in test [4], 5 mg/L (≈ 8.76 µM); in test [5], 2.5 mg/L (≈ 4.38 µM); in test [6] it was 2.5 mg/L (≈ 4.38 µM). Further, the MIC in test [7] is 10 mg/L (≈ 17.5 µM); in [8], over 40 mg/L; in test [9] (ATCC 25922, 24 h), 2.5 mg/L (≈ 4.38 µM); in test [10] (ATCC 25923, 24 h) it was 2.5 mg/L (≈ 4.38 µM); in test [11] (ATCC 25922, 24 h), 10 mg/L; in test [12] (ATCC 25923, 24 h), 5 mg/L. In addition, in [13], the Ratio worked out at 4. For the same compound, the FC in test [14] amounted to 5. Besides, in test [15], the result was Active. Also, the “fold change (FC)” value in [16] and in test [18] was 4 throughout. Also, in test [17], the Activity is given as under 35%.

Take `C[C@@H](NCCCCCCN)[C@H]1CC[C@H]2[C@@H]3CCC4=C[C@@H](NCCCCCCN)CC[C@]4(C)[C@H]3CC[C@]12C`: the minimum inhibitory concentration (MIC) in test [1] came to 2.5 mg/L (≈ 4.86 µM); in test [2], 5 mg/L (≈ 9.71 µM); in test [3], 5 mg/L (≈ 9.71 µM); in test [4], 5 mg/L (≈ 9.71 µM); in test [5], 10 mg/L (≈ 19.4 µM); in test [6], 20 mg/L (≈ 38.8 µM). Also, the values for the MIC in test [7] and in test [8] were 20 mg/L (≈ 38.8 µM) and over 40 mg/L, respectively.

`C[C@@H](NCCCCCCCCCN)[C@H]1CC[C@H]2[C@@H]3CCC4=C[C@@H](NCCCCCCCCCN)CC[C@]4(C)[C@H]3CC[C@]12C`: the MIC in test [1] turned out to be 5 mg/L (≈ 8.35 µM); in [2], 5 mg/L (≈ 8.35 µM); in test [3], 5 mg/L (≈ 8.35 µM); in test [4] it was 20 mg/L (≈ 33.4 µM); in test [5] it was 40 mg/L (≈ 66.8 µM); in test [6] it was 40 mg/L (≈ 66.8 µM). For the same compound, the minimal inhibitory concentration (MIC) in test [7] is 20 mg/L (≈ 33.4 µM); in [8], over 40 mg/L.

As to `C[C@@H](NCCCCCCCCCCCCN)[C@H]1CC[C@H]2[C@@H]3CCC4=C[C@@H](NCCCCCCCCCCCCN)CC[C@]4(C)[C@H]3CC[C@]12C`, the MIC in test [1] stood at 10 mg/L (≈ 14.6 µM); in test [2], 5 mg/L (≈ 7.32 µM); in test [3] it was 10 mg/L (≈ 14.6 µM); in test [4] it was 20 mg/L (≈ 29.3 µM); in test [5], 40 mg/L (≈ 58.5 µM); in test [6], 40 mg/L (≈ 58.5 µM). Besides, the results for the MIC in [7] and in test [8] were 20 mg/L (≈ 29.3 µM) and over 40 mg/L, respectively.

As to COLISTIMETHATE SODIUM, the MIC in test [4] was 2.5 mg/L; in test [5], 5 mg/L; in [6] it was 5 mg/L; in test [7] it was over 100 mg/L; in [8], over 40 mg/L; in test [9] it was 0.5 mg/L. Besides, the MIC is over 128 mg/L in test [10], 16 mg/L in test [11] and over 128 mg/L in test [12]. In addition, in test [13], the Ratio is 4. In addition, the Activity in [17] was 4%. Moreover, the result in test [19] was inactive.

With `C[C@@H](NCCCCCCCCCCN)[C@H]1CC[C@H]2[C@@H]3CCC4=C[C@@H](NCCCCCCCCCCN)CC[C@]4(C)[C@H]3CC[C@]12C`, the MIC stood at 10 mg/L (≈ 15.9 µM) in [1]; 5 mg/L (≈ 7.97 µM) in test [2]; 5 mg/L (≈ 7.97 µM) in test [3]; 20 mg/L (≈ 31.9 µM) in test [4]; 40 mg/L (≈ 63.8 µM) in test [5]; 40 mg/L (≈ 63.8 µM) in [6]. The MIC was 20 mg/L (≈ 31.9 µM) in test [7] and over 40 mg/L in [8].

In the case of `C[C@@H](NCCN)[C@H]1CC[C@H]2[C@@H]3CCC4=C[C@@H](NCCN)CC[C@]4(C)[C@H]3CC[C@]12C`, the MIC in [1] was found to be 20 mg/L (≈ 49.7 µM); in [2], 20 mg/L (≈ 49.7 µM); in [3] it was 10 mg/L (≈ 24.8 µM); in test [4], 20 mg/L (≈ 49.7 µM); in test [5], 20 mg/L (≈ 49.7 µM); in test [6] it was 20 mg/L (≈ 49.7 µM). Further, the MIC in test [7] and in [8] was over 40 mg/L throughout.
